This passage reports LC retention time results from the RepoRT retention time repository (doi:10.1021/acs.analchem.2c02893).

The series is described as follows: RP, Thermo Scientific Acclaim RSLC 120 C18, 100 × 2.1 mm, 2.2 µm, 30 °C, 0.2 mL/min, estimated dead time 1.1 min; A: 90% water + 10% methanol + 0.01% formic acid + 5 mM ammonium formate, pH 3.61; B: methanol + 0.01% formic acid + 5 mM ammonium formate, pH 3.61; gradient (min/%B) 0/1 1/1 2/39 13/99.9 15/99.9 15.1/1 20.1/1. Particulars: stereoisomer not certain.
Turning to `NC(C(=O)NC1C(=O)N2C(C(=O)O)=C(Cl)CSC12)c1ccccc1` (stereo unspecified) [Cefaclor], the LC retention time is 4.09 min.

Regarding `O=C(Oc1cccc2ccccc12)c1cn(CCCCCF)c2ccccc12` [NM-2201], the LC retention time was 12.4 min.

As to `CC(C)C(NC(=O)c1nn(CC2CCCCC2)c2ccccc12)C(N)=O` (stereo unspecified) [AB-CHMINACA], the LC retention time is 11.3 min.

On to `Cc1cccc2n[nH]nc12` [Benzotriazole -4-Me], for which the LC retention time was 5.83 min.

Regarding `CN(C)CCOCC(=O)NC12CC3CC(CC(C3)C1)C2` [Tromantadine], the LC retention time was 6.64 min.

Take `CCCCCc1cc(O)c2c(c1)OC(C)(C)c1ccc(C)cc1-2` [Cannabinol]: the LC retention time is 13.7 min.

As for `COC(=O)NC(C(=O)NC(Cc1ccccc1)C(O)CN(Cc1ccc(-c2ccccn2)cc1)NC(=O)C(NC(=O)OC)C(C)(C)C)C(C)(C)C` (stereo unspecified) [Atazanavir], the LC retention time was 10.9 min.

On to `CCCCc1c(C)nc(N(C)C)[nH]c1=O` [Dimethirimol], for which the LC retention time was 7.7 min.

Consider `CCCc1nn(C)c2c(=O)[nH]c(-c3cc(C(=O)CN4CCN(CC)CC4)ccc3OCC)nc12` [Acetildenafil], for which the LC retention time was 7.01 min.

Consider `CCC1OC(=O)C(C)C(OC2CC(C)(OC)C(O)C(C)O2)C(C)C(OC2OC(C)CC(N(C)C)C2O)C(C)(O)CC(C)C(=NOCOCCOC)C(C)C(O)C1(C)O` (stereo unspecified) [Roxithromycin], for which the LC retention time is 9.23 min.

With `CCCCCCCCn1sc(Cl)c(Cl)c1=O` [4-5-Dichloro-2-n-octyl-isothiazol-3(2H)-on (DCOIT)], the LC retention time is 12.5 min.

Turning to `Cc1cccc(C)c1N(Cn1cccn1)C(=O)CS(=O)CC(=O)O` (stereo unspecified) [Metazachlor BH 479-9], the LC retention time was 4.94 min.

For `CON(C)C(=O)Nc1ccc(Br)cc1` [Metobromuron], the LC retention time was 8.15 min.

`CN(C)CCC(c1ccccc1)c1ccccn1` (stereo unspecified) [Pheniramine]: the LC retention time was 4.98 min.

As for `O=C1Nc2ccc(Br)cc2C(c2ccccc2Cl)=NC1O` (stereo unspecified) [Phenazepam- 3-Hydroxy], the LC retention time was 8.34 min.

On to `CN(C)CCC=C1c2ccccc2C(C)(C)c2ccccc21` [Melitracen], for which the LC retention time is 8.79 min.

As for `COc1ccc2c3c1OC1C(O)C=CC4C(C2)N(C)CCC341` (stereo unspecified) [Codeine], the LC retention time is 3.4 min.

For `CCCc1nc(C)c2c(=O)[nH]c(-c3cc(C(=O)CN4CCN(CC)CC4)ccc3OCC)nn12` [Vardenafil-Acetyl], the LC retention time is 7.16 min.

As to `COC(=O)C1=C(C)NC(C)=C(C(=O)OCCN(C)Cc2ccccc2)C1c1cccc([N+](=O)[O-])c1` (stereo unspecified) [Nicardipine], the LC retention time was 8.39 min.

Consider `CCN(CC)C(C)C(=O)c1ccccc1` (stereo unspecified) [Amfepramone], for which the LC retention time was 4.11 min.

With `CC(C(=O)c1ccccc1)N(C)C` (stereo unspecified) [Cathinone-Dimethyl], the LC retention time is 3.64 min.

In the case of `O=C(Nc1ccccc1)N(Cc1ccc(Cl)cc1)C1CCCC1` [Pencycuron], the LC retention time was 11.4 min.

On to `Cc1cc(C2CC2)nc(Nc2ccccc2)n1` [Cyprodinil], for which the LC retention time was 11 min.

`CCCCN(C)C(=O)Nc1ccc(Cl)c(Cl)c1` [Neburon]: the LC retention time is 10.7 min.

On to `Cn1cnc2c1c(=O)n(CCCC(=O)O)c(=O)n2C` [1-(3-carboxypropyl)-3,7-dimethylxanthine], for which the LC retention time was 4.48 min.

In the case of `CC(C)OC(=O)Nc1ccc2nc(-c3cscn3)[nH]c2c1` [Cambendazol], the LC retention time is 7.66 min.

In the case of `Nc1c(Cl)c(F)nc(OCC(=O)O)c1Cl` [Fluroxypyr], the LC retention time was 5.43 min.

`CCCOP(=S)(OCCC)OP(=S)(OCCC)OCCC` [Aspon]: the LC retention time is 12.9 min.

For `CCNc1nc(Cl)nc(NC(C)(C)C#N)n1` [Cyanazine], the LC retention time was 6.55 min.

`O=C(c1ccc(F)c2ccccc12)c1cn(CCCCCF)c2ccccc12` [JWH-412-5F. F2201]: the LC retention time is 11.6 min.

With `c1cc2c(c(NC3=NCCN3)c1)CCC2` [Indanazoline], the LC retention time is 4.76 min.

Consider `O=C(NC12CC3CC(CC(C3)C1)C2)c1nn(CCCCCF)c2ccccc12` [AKB48-5F (5F-APINACA)], for which the LC retention time is 12.9 min.

Consider `CCCCCn1cc(C(=O)c2cccc3ccccc23)cc1-c1ccccc1F` [JWH-307], for which the LC retention time was 12.8 min.

Take `CCOC(=O)C1=NN(c2ccc(Cl)cc2Cl)C(C)(C(=O)OCC)C1` (stereo unspecified) [Mefenpyr-diethyl]: the LC retention time is 11.1 min.

Regarding `CN(C(=O)CN(CCO)CC(=O)N(C)C(C)(C)Cc1ccccc1)C(C)(C)Cc1ccccc1` [Oxetacaine], the LC retention time is 10.9 min.

For `Cc1cccc(OCC(O)CNC(C)C)c1` (stereo unspecified) [Toliprolol], the LC retention time is 5.29 min.

Turning to `C=CC=CCC1=C(C)C(OC(=O)C2C(C=C(C)C)C2(C)C)CC1=O` (stereo unspecified) [Pyrethrin I], the LC retention time is 12.9 min.

With `CCCN1CC(CSC)CC2c3cccc4[nH]cc(c34)CC21` (stereo unspecified) [Pergolide], the LC retention time was 6.19 min.

With `CCOC(=O)C(C)(C)Oc1ccc(Cl)cc1` [Clofibrate], the LC retention time was 11 min.

`O=C(O)CCCO` [GHB Fragm 87]: the LC retention time was 1.95 min.

Regarding `Cc1nnc2n1-c1ccc(Cl)cc1C(c1ccccc1)=NC2O` (stereo unspecified) [Alprazolam-Hydroxy], the LC retention time is 7.81 min.

As to `Clc1ccc2c(c1)CCc1cccnc1C2=C1CCNCC1` [Desloratadine], the LC retention time is 7.48 min.

Consider `CCN1CCCC1CNC(=O)c1cc(S(N)(=O)=O)ccc1OC` (stereo unspecified) [Sulpiride], for which the LC retention time is 2.94 min.

Consider `CN1CCN(c2cc3c(cc2F)c(=O)c(C(=O)O)cn3-c2ccc(F)cc2)CC1` [Difloxacin], for which the LC retention time was 4.96 min.

As for `Nc1ncnc(Nc2ccc(Cl)cc2)n1` [Chlorazanil], the LC retention time was 7.46 min.

With `CC[N+]1([O-])CCCC1CNC(=O)c1cc(S(=O)(=O)CC)c(N)cc1OC` (stereo unspecified) [Amisulpride-N-Oxide], the LC retention time is 4.33 min.

On to `CC(Oc1ccc(Oc2cnc3cc(Cl)ccc3n2)cc1)C(=O)O` (stereo unspecified) [Quizalofop], for which the LC retention time was 9.62 min.

Take `CCCCOC(=O)c1ccc(O)cc1` [Butylparaben]: the LC retention time was 9.46 min.

Consider `CCc1cc(OC)c(CC(C)N)cc1OC` (stereo unspecified) [DOET], for which the LC retention time was 6.88 min.

Regarding `CCCCOC(=O)C1C(C(=O)OCCCC)C2(Cl)C(Cl)=C(Cl)C1(Cl)C2(Cl)Cl` (stereo unspecified) [Chlorendate-Dibutyl], the LC retention time is 14 min.

For the molecule `c1ccc(C(CCN2CCCCC2)c2ccccc2)cc1` [Fenpiprane], the LC retention time is 6.82 min.

Regarding `COP(=S)(OC)Oc1ccc([N+](=O)[O-])c(C)c1` [Fenitrothion], the LC retention time is 9.92 min.

Regarding `COC(=O)c1sccc1S(=O)(=O)NC(=O)Nc1nc(C)nc(OC)n1` [Thifensulfuron-methyl], the LC retention time was 6.24 min.

On to `C=CC1(C)OC(=O)N(c2cc(Cl)cc(Cl)c2)C1=O` (stereo unspecified) [Vinclozolin], for which the LC retention time is 10.6 min.

For `CC(C)(C)NCC(O)c1ccccc1Cl` (stereo unspecified) [Tulobuterol], the LC retention time is 5.17 min.

In the case of `CNC(C)C1CCC(N)C(OC2C(N)CC(N)C(OC3OCC(C)(O)C(NC)C3O)C2O)O1` (stereo unspecified) [Gentamycin], the LC retention time was 11.6 min.
